In patent publication US20200061084A1, “USE OF 2AMD AND 2MD TO TREAT FIBROSIS” (WISCONSIN ALUMNI RESEARCH FOUNDATION, priority 2016, published 2020):

Columns and labels:
[1] = Serum calcium levels of rats dosed with CsA and vitamin D analogs (atomic absorption spectroscopy); type: in vivo, Sprague-Dawley male rats
Protocol: Rats were randomly assigned to groups of 6 each. Each animal received daily injections under 2% isofluorane. […] Vitamin D analogs were dissolved in polyethylene glycol, 0.5% ethanol (PEG). […] All rats were provided with food and water ad-libitum as per standard procedure. Animals were dosed daily for 28 days with the last dose given approximately 24 h prior to harvest (except for 5 animals receiving 1,25(OH)2D3 which were dosed 48 h prior to harvest). Animals were placed under anesthesia, urine and blood (aorta) were collected and kidneys removed; rats were euthanized by pneumothorax puncture. Kidneys were sectioned longitudinally with one half placed into 10% formalin and the other half snap frozen into liquid nitrogen. Blood was allowed to clot for about 1 h followed by spinning and removing of serum. Tissues in formalin were embedded in paraffin and sectioned for further study. Serum, urine and frozen kidney tissues were stored at −80° C.
Serum was analyzed for BUN, creatinine and calcium levels. The BUN and creatinine measurements were performed using IDEXX cartridges measured on a VETTEST Chemistry Analyzer.

[2] = system: CsA-induced nephrotoxicity; test: CsA-induced nephrotoxicity in rats, 28 days: weight, serum BUN and creatinine, urinary protein/creatinine ratio, H&E and picrosirius red histology; type: in vivo, Sprague-Dawley male rats; details: for Dose sufficient to prevent nephrotoxicity and/or fibrosis without dramatically increasing serum calcium levels: Sprague-Dawley rats; for Picrosirius staining (collagens): kidney sections, birefringence quantified; for Picrosirius staining (collagens) / Serum creatinine / BUN / Urinary protein/creatinine ratio: rats; for Picrosirius staining (collagens) / weight / Serum creatinine / BUN / Urinary protein/creatinine ratio: CsA 20 mg/kg/day, analog 5 ng/kg, daily 28 days; for weight: rats at harvest; for BUN: serum; for Urinary protein/creatinine ratio: spot urine at harvest
Protocol: Rats were randomly assigned to groups of 6 each. Each animal received daily injections under 2% isofluorane. […] Vitamin D analogs were dissolved in polyethylene glycol, 0.5% ethanol (PEG). […] All rats were provided with food and water ad-libitum as per standard procedure. Animals were dosed daily for 28 days with the last dose given approximately 24 h prior to harvest (except for 5 animals receiving 1,25(OH)2D3 which were dosed 48 h prior to harvest). Animals were placed under anesthesia, urine and blood (aorta) were collected and kidneys removed; rats were euthanized by pneumothorax puncture. Kidneys were sectioned longitudinally with one half placed into 10% formalin and the other half snap frozen into liquid nitrogen. Blood was allowed to clot for about 1 h followed by spinning and removing of serum. Tissues in formalin were embedded in paraffin and sectioned for further study. Serum, urine and frozen kidney tissues were stored at -80° C. […] Serum was analyzed for BUN, creatinine and calcium levels. The BUN and creatinine measurements were performed using IDEXX cartridges measured on a […] Chemistry Analyzer. […] Urine testing to determine protein/creatinine ratio was performed using IDEXX cartridges; protein levels were also measured using BCA protein determination. Kidneys fixed in formalin were embedded in paraffin, sectioned and stained with Hematoxilin/eosin and with pricrosirius red, which stains mostly collagens I and III. Stained sections were imaged on an upright brightfield Nikon microscope with polarizer capabilities to assess the birefringence of the picrosirius-stained collagen fibers. Quantization of staining was carried out using Image J from 5 images obtained at random within the central cortical area and excluding blood vessels. For H&E, the eosin staining (pink) prevalent in native tissue was quantified Data was analyzed using Graphpad Prism software with the standard student t-test or One-way Anova operations.

[3] = system: unilateral ureteral obstruction (UUO) model; test: Unilateral ureteral obstruction (UUO) model, picrosirius staining of collagen in kidney sections; type: in vivo, Male Sprague-Dawley rats
From the text: The unilateral ureteral obstruction (UUO) model is a surgical model representing a rodent equivalent of acute kidney injury. Obstruction results in marked dilatation of the ureter together with reduced renal blood flow and glomerular filtration.
Male Sprague-Dawley rats weighing approximately 200-350 g were acclimated and fed ad libitum a standard diet (Teklad 8604 or 2018, Harlan, Madison Wis.). Briefly, under 2% isoflurane anesthesia, the left kidney and ureter were exposed through a midline or a flank incision. The ureter was ligated using 5-0 or 6-0 braided silk suture material. The ligated ureter and kidney were returned to the abdominal cavity and the incision was closed in two layers with interrupted sutures and VETBOND tissue adhesive or staples. The right or contralateral kidney was used as a control. Sham operated animals were treated as the UUO animals except their ureter was not ligated (not shown).
Animals were given buprenorphine (0.05 mg/kg) prior to returning them to their cages where they were kept on standard water and chow until sacrifice at the designated times. Animals were euthanized under CO2, following a midline incision blood was collected via cardiac puncture and the kidneys were removed. The midsection of each kidney was placed in 10% formalin for paraffin embedding and histological staining. […]

Compound | Dose sufficient to prevent nephrotoxicity and/or fibrosis without dramatically increasing serum calcium levels [2] [ng/kg per day] | Decrease of BUN compared to the CsA-treated group ([2]; analog at 5 ng/kg) | Mean UPC lower than the mean UPC for the CsA group ([2]; analog at 5 ng/kg) | Picrosirius staining (collagens) [2] | weight [2] [g] | Serum creatinine [2] [mg/dL] | BUN [2] [mg/dL] | Urinary protein/creatinine ratio [2] | other results
2α-methyl-19-nor-(20S)-1α,25-dihydroxyvitamin D3 [2AMD] | 5 | about 30% | about 74% | 1.8 | 333.8 | 0.36 | 28 | 0.2 | Relationship of serum calcium levels with dose ([1]; rat, in vivo): linear relationship with dose; Collagen content ([2]; 2.5 ng/kg): reduction in collagen content; Decrease of BUN compared to the CsA-treated group ([2]; 2AMD at 10 ng/kg): about 30%; Serum creatinine, normal (below 0.6 mg/dL) or not ([2]; 2AMD at 20 ng/kg): normal in most of the treatment groups except for 2AMD at 20 ng/kg; Eosinophilic tissue (eosin in H&E-stained kidney) compared to the CsA treated group ([2]; CsA + 2AMD 2.5 ng/kg): promoted an increase in eosinophilic tissue; Eosinophilic tissue (eosin in H&E-stained kidney) compared to the CsA treated group ([2]; CsA + 2AMD 5 ng/kg): promoted an increase in eosinophilic tissue; Decrease of the CsA-promoted increase in collagen birefringence (picrosirius red) ([2]; CsA + 2AMD 5 ng/kg, 28 days): about 30%; Drop in weight from the rats' original weights ([2]; CsA + 2AMD 5 ng/kg, day of harvest): 5 g; Fibrosis ([2]; all doses of 2AMD (2.5, 5, 10, 20 ng/kg)): effective at reducing fibrosis; Dose optimal in nephroprotection ([2]; various doses of 2AMD tested): 5 ng/kg rat body weight; Decrease in collagen content (picrosirius staining) ([3]; 2AMD 5 ng/kg oral daily for 14 days starting on the day of UUO): 3 fold; Decrease in collagen content (picrosirius staining) ([3]; 2AMD 5 ng/kg oral daily, from 7 days prior to UUO to 7 days after UUO (-7+7)): 3 fold
cyclosporine [CsA + PEG] | – | – | – | – | – | – | – | – | Serum Ca ([1]; rats, CsA 20 mg/kg/day, analog 5 ng/kg, daily injection 28 days, blood about 24 h after last dose): 8.7 mg/dL
C=C1[C@H](O)CC(=C/C=C2\CCCC3(C)C2CCC3[C@@H](C)CCCC(C)(C)O)C[C@H]1O (stereo partly drawn) [2MD, 2-methylene-19-nor-(20S)-1α,25-dihydroxyvitamin D3] | 5 | about 30% | about 74% | 1.7 | 317.3 | 0.33 | 27 | 0.4 | –
C=C1/C(=C\C=C2/CCC[C@]3(C)[C@@H]([C@H](C)CCCC(C)(C)O)CC[C@@H]23)C[C@@H](O)C[C@@H]1O [1,25(OH)2 D3, 1,25(OH)2D3] | – | – | – | – | – | – | – | – | Serum calcium level increase with respect to rats with vehicles or CsA+PEG ([1]; CsA + 1,25(OH)2D3 100 ng/kg, 28 days): about 25%
